Test results taken from patent US8609432B2, “Method and kit for detection of autoimmune chronic urticaria” (priority 2005, dated 2013).

Assays:
[1] = system: basophils, CD203c expression; details: cited from earlier work
[2] = system: basophils, CD63 expression; details: cited from earlier work
[3] = system: basophils (CD203c/IgE positive cells) in donor whole blood; experiment: Measurement of CD203c surface expression on donor basophils by flow cytometry; type: cell-based, human; details: positive controls, donor heparinized whole blood incubated 10 minutes at 37° C.; above buffer baseline; mean ±SEM, n=4
Method: Whole blood from seven normal individuals was screened and one donor was identified based on the marked upregulation of CD203c on basophils (CD203c/IgE positive cells) in response to fMLP and anti-FcεRIα antibody.
The test was carried out on heparinized blood within 3-4 hours after drawing the donor's blood. Two hundred μL aliquots of the donor's heparinized whole blood were incubated for 10 minutes at 37° C. with 40 μL of sera from CU patients, normal controls, or IgG depleted sera. For controls, 40 μL basophil stimulation buffer (20 mM HEPES, 125 mM NaCl, 5 mM KCl, 2.5 mM CaCl2, 1 mM MgCl2, 0.5 mM glucose, and 0.1% BSA, pH 7.4) was added to 200 μL of donor's blood and used as the negative control while 40 μL of […] f-Met-Leu-Phe (fMLP, Sigma, St. Louis, Mo.) and 40 μL of a 1:50 dilution of anti-FcεRIα receptor antibody (Upstate, Charlottesville, Va.) in Ca++ and Mg++ free phosphate buffered saline (PBS) were used as positive controls. […] The cells were then analyzed on a FACSCalibur flow cytometer (Becton Dickinson, San Jose, Calif.).
Basophils from whole blood were identified by the presence of CD203c on high expressing IgE positive cells (FIGS. 1A and 1B). The data are expressed as the mean fluorescence intensity or the percentage of CD203c expression. […] This was determined by defining an M1 region on the histogram analysis (FIG. 1C).

CCCCC[C@H](O)/C=C/[C@H]1C(=O)C[C@H](O)[C@@H]1C/C=C\CCCC(=O)O [PGD2]
induction of CD203c expression [1]: strong inducer | stimulation of CD63 expression [2]: does not stimulate

f-Met-Leu-Phe [fMLP]
mean percent basophil CD203c expression [3]: 34.5%±14.6
